Five compounds from ChEMBL document CHEMBL5137121, “Spiroisoxazoline Inhibitors of Acetylcholinesterase from Pseudoceratina verrucosa. Quantitative Chiroptical Analysis of Configurational Heterogeneity, and Total Synthesis of (±)-Methyl Purpuroceratate C” (J Nat Prod, 2022) can be followed below.

One assay addresses Cholinesterase (Equus caballus, UniProt P81908). The assay can be described thus: Inhibition of horse BuChE using butyrylthiocholine as substrate preincubated with enzyme for 30 mins followed by substrate addition by Ellman's method. A general note: Ellman's reagent forms a yellow product with free thiols.
For another assay, the target named is Acetylcholinesterase (Electrophorus electricus, UniProt O42275). As to the kind of experiment: Inhibition of electric eel AChE using acetylthiocholine as substrate preincubated with enzyme for 30 mins followed by substrate addition by Ellman's method.
Sequence of Acetylcholinesterase (O42275 whole entry): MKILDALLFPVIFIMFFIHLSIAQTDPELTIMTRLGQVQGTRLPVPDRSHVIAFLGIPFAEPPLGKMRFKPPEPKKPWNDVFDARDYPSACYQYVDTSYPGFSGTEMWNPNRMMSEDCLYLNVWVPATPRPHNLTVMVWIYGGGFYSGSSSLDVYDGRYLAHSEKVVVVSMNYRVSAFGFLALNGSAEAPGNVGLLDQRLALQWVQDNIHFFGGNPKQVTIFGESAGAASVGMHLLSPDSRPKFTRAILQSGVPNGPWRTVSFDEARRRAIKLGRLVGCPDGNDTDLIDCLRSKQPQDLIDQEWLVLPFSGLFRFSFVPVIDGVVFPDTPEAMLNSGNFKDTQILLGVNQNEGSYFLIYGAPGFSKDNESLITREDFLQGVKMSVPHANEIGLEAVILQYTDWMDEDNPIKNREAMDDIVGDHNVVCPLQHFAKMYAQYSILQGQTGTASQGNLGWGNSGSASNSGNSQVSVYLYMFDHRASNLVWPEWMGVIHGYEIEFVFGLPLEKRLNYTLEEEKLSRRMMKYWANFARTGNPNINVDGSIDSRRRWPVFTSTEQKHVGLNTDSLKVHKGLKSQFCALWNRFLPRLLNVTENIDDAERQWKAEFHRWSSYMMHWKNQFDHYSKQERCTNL
Assay [1] in a line: Selectivity index, ratio of IC50 for horse BuChE to IC50 for electric eel AChE.

Sequence of Cholinesterase (P81908 whole entry): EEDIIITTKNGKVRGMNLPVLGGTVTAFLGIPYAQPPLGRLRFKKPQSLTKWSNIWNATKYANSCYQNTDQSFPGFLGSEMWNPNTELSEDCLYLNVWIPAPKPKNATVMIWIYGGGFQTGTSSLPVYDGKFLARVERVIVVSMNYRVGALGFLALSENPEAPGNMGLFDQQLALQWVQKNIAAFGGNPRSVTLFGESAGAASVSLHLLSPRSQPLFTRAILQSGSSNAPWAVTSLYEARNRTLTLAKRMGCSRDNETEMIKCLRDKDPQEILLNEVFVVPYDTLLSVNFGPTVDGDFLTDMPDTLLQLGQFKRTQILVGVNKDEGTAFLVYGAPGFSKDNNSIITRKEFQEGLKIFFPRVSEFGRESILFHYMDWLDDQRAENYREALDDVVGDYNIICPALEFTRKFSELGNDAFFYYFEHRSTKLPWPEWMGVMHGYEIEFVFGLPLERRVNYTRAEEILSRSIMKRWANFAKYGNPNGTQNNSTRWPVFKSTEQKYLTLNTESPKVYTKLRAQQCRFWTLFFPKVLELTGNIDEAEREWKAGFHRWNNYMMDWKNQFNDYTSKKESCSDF

As for `COC1=C(Br)[C@H](O)[C@@]2(C=C1Br)CC(C(=O)NCCc1cc(Br)c(O)c(Br)c1)=NO2`, the IC50 (usually the concentration that gives 50% inhibition) against Cholinesterase was determined as 10.7 µM; on Acetylcholinesterase, 5.8 µM. For the same compound, the Ratio IC50 in assay [1] came to 1.9.

With `COC1=C(Br)[C@H](O)[C@@]2(C=C1Br)CC(C(=O)NCCCCCNC(=N)N)=NO2` [APLYSINAMISINE II], the values for the 50% inhibitory concentration (IC50) on Cholinesterase and at Acetylcholinesterase were 10.3 µM and 0.77 µM, respectively. In addition, in assay [1], the Ratio IC50 was found to be 13.

Regarding `COC1=C(Br)[C@H](O)[C@@]2(C=C1Br)CC(C(=O)NCCCOc1c(Br)cc(C[C@H](N)C(=O)O)cc1Br)=NO2`, the figures for the 50% inhibitory concentration (IC50) against Cholinesterase and against Acetylcholinesterase were over 100 µM and 19.9 µM, respectively. Further, the Ratio IC50 in assay [1] was over 5.

For the compound `COC1=C(Br)[C@H](O)[C@@]2(C=C1Br)CC(C(=O)NCCc1cc(Br)c(OCCC(C(=O)[O-])[N+](C)(C)C)c(Br)c1)=NO2` (stereo not given in full), the IC50 on Cholinesterase came out at 10 µM; against Acetylcholinesterase, 4.79 µM. Moreover, the Ratio IC50 in assay [1] is 2.1.

As for `COC1=C(Br)[C@H](O)[C@@]2(C=C1Br)CC(C(N)=O)=NO2`, the figures for the IC50 against Cholinesterase and at Acetylcholinesterase were 15.4 µM and 3.32 µM, respectively. For the same compound, the Ratio IC50 in assay [1] is 4.6.
